# Measured values reported in patent US20220249598A1, “COMPOSITIONS TARGETING SPERM CALCINEURIN” (Kent State University, priority 2019, published 2022).
# Entries after “also recorded” stand apart in the source; their conditions may differ.
# Tests used:
# [1] = tested on: mouse sperm; assay: sperm motility / hyperactivation by computer assisted sperm analyzer (CASA); type: cell-based; details: FK506 treatment 120-180 min, capacitation; FIG. 2B
# Protocol: Another set of treated sperm cell was analyzed for its motility parameters using computer assisted sperm analyzer (CASA). Average path velocity (VAP), curvilinear velocity (VCL) and amplitude of lateral head displacement (ALH) were measured to assess hyperactivation. FIG. 2 illustrates the detection of FK506 induced defect in sperm motility and oocyte penetration. A) FK506 (20 nM) treated spermatozoa were used for both cumulus free zona intact oocytes as well as zona-free oocytes. B) Effect of FK506 treatment for (120-180 min) on sperm hyperactivation controlling parameters; VAP: average path velocity, VCL: curvilinear velocity, ALH: lateral head amplitude.
# [2] = tested on: GSK3α; assay: GSK3 phosphorylation in sperm by Western blot; type: cell-based, mouse; details: FK506 20 nM during capacitation
# Protocol: (§1) The effect of calcineurin inhibitor on GSK3αβ phosphorylation was studied by Western blot procedure. Calcium dependence of calcineurin mediated GSK3α regulation was also checked. Both GSK3 activity and Calcineurin activity were measured in presence of FK506. FIG. 3 illustrates the regulation of GSK3α in mouse sperm by FK506. A) Modulation of phospho-serine/tyrosine profile GSK3α by FK506 (20 nM) during capacitation; for capacitation spermatozoa were incubated with ‘capacitation medium’, HTF or TYH for ˜90 min. B) phosphor-serine GSK3α status was checked during capacitation with TYH medium having high fatty acid containing BSA. C) Possible involvement of AKT in mediation of calcineurin induced regulation of GSK3α. D) Validation of involvement of extracellular calcium in GSK3α regulation; no calcium salt was added in the ‘−Ca^2+’ set, 10 μM BAPTA-AM was used to chelate intra-sperm Ca^2+ ions; […] phosphorylation was compared between wild type and ppp3r2 knockout sperm extract E) GSK3 activity of sperm cells under capacitating condition was checked using p^32radioactive ATP for phosphorylation of substrate. F) Co-relation among intracellular free calcium levels of different maturational stages of sperm cells with calcineurin activity was measured; for negative control, 20 nM of FK506 was used. All data represent mean±SEM of n=4 for all the values. *p≤0.05, **p≤0.01 versus control.
# [3] = tested on: mouse caudal spermatozoa; assay: IVF of treated spermatozoa with cumulus-free zona-free oocytes; type: cell-based; details: FK506 20 nM, FIG. 2A
# Protocol: Nanomolar doses of FK506 were used to treat spermatozoa and then use those cells were used for in vitro fertilization (IVF) assays. The treated spermatozoa were exposed to three different types oocyte conditions while performing IVF: a) regular IVF with intact oocyte-cumulus complex, b) cumulus-free intact oocyte and c) cumulus-free zona-free oocyte. FIG. 2 illustrates the detection of FK506 induced defect in sperm motility and oocyte penetration. A) FK506 (20 nM) treated spermatozoa were used for both cumulus free zona intact oocytes as well as zona-free oocytes. B) Effect of FK506 treatment for (120-180 min) on sperm hyperactivation controlling parameters; VAP: average path velocity, VCL: curvilinear velocity, ALH: lateral head amplitude.
# [4] = 0.1% tacrolimus formulations; cited from earlier work
# [5] = tested on: oocytes; assay: IVF with oocytes pre-incubated with inhibitor, spermatozoa untreated; type: cell-based, mouse; details: oocytes incubated with same concentration of FK506 (20 nM)
# Protocol: FIG. 1 illustrates the effect of treatments of mouse caudal spermatozoa with calcineurin and GSK3 inhibitors on in vitro fertilization, indicated by two-cell stage formation. A) Spermatozoa were incubated under capacitating medium (viz. […] Additionally, oocytes were also incubated with same concentration of FK506, which it encounters during the IVF, the corresponding spermatozoa set was untreated. All data represent mean±SEM of n=3 for all the values. *p≤0.05 versus control. B) Dose response curve of FK506 at 0, 2.5, 5, 10, 20 & 50 nM concentration. C) Representative images showing effect of FK506 on IVF; black triangles directing the two-cell stage after fertilization of eggs.
# [6] = cited from earlier work
# [7] = tested on: mouse caudal spermatozoa; assay: in vitro fertilization (IVF) with inhibitor-treated spermatozoa, two-cell stage formation; type: cell-based
# Protocol: Nanomolar doses of FK506 were used to treat spermatozoa and then use those cells were used for in vitro fertilization (IVF) assays. The treated spermatozoa were exposed to three different types oocyte conditions while performing IVF: a) regular IVF with intact oocyte-cumulus complex, b) cumulus-free intact oocyte and c) cumulus-free zona-free oocyte.
# A) Spermatozoa were incubated under capacitating medium (viz. […] Additionally, oocytes were also incubated with same concentration of FK506, which it encounters during the IVF, the corresponding spermatozoa set was untreated. […] B) Dose response curve of FK506 at 0, 2.5, 5, 10, 20 & 50 nM concentration.
# [8] = tested on: sperm GSK3; assay: GSK3 activity of sperm cells with p32 radioactive ATP; type: biochemical, mouse; details: capacitating condition
# Protocol: as §1
# [9] = target: sperm calcineurin (Mus musculus, UniProt P26883+P48455+Q63811); assay: calcineurin activity in sperm; type: biochemical
# Protocol: The effect of calcineurin inhibitor on GSK3αβ phosphorylation was studied by Western blot procedure. Calcium dependence of calcineurin mediated GSK3α regulation was also checked. Both GSK3 activity and Calcineurin activity were measured in presence of FK506. […] A) Modulation of phospho-serine/tyrosine profile GSK3α by FK506 (20 nM) during capacitation; for capacitation spermatozoa were incubated with ‘capacitation medium’, HTF or TYH for ˜90 min. B) phosphor-serine GSK3α status was checked during capacitation with TYH medium having high fatty acid containing BSA. C) Possible involvement of AKT in mediation of calcineurin induced regulation of GSK3α. D) Validation of involvement of extracellular calcium in GSK3α regulation; no calcium salt was added in the ‘−Ca^2+’ set, 10 μM BAPTA-AM was used to chelate intra-sperm Ca^2+ ions; CatSper1 phosphorylation was compared between wild type and ppp3r2 knockout sperm extract E) GSK3 activity of sperm cells under capacitating condition was checked using p^32radioactive ATP for phosphorylation of substrate. F) Co-relation among intracellular free calcium levels of different maturational stages of sperm cells with calcineurin activity was measured; for negative control, 20 nM of FK506 was used.
smiles,measurement,setting,value
"C=CC[C@@H]1/C=C(\C)C[C@H](C)C[C@H](OC)[C@H]2O[C@@](O)(C(=O)C(=O)N3CCCC[C@H]3C(=O)O[C@H](/C(C)=C/[C@@H]3CC[C@@H](O)[C@H](OC)C3)[C@H](C)[C@@H](O)CC1=O)[C@H](C)C[C@@H]2OC [FK506, tacrolimus]","hyperactivation of sperm (VAP, VCL, ALH)",[1],mostly unable to exhibit hyperactivity; also recorded: lack of attainment of hyperactivation
same,net phosphorylation of sperm GSK3,[2],increase in the net phosphorylation
same,fertilization of zona-free eggs by treated sperm,[3],not affecting sperm cells to fertilize zona-free eggs
same,skin side effects,[4],"increased sensitivity of skin, burning, stinging or itching sensations"
same,reduction in fertilization after pre-treatment of oocytes,[5],did not result in any reduction in fertilization
same,titer of the drug in blood,[6]; 0.1% tacrolimus formulations,nanomolar titer
same,bioavailability from an ointment formulation,[6]; topical ointment,~0.5%
same,"inhibition of sperm ability to fertilize eggs in vitro, dose response","[7]; FK506 at 0, 2.5, 5, 10, 20 & 50 nM",good enough to inhibit
same,inhibition of fertilizing ability of sperm in vitro,"[7]; sperm incubated 1 hr at 37° C. in capacitating medium, FK506 20 nM, cyclosporin A 10 μM, two-cell stage formation, FIG. 1A",significantly and independently inhibit; also recorded: inhibited fertilization
same,catalytic activity of sperm GSK3,[8],decrease in catalytic activity
same,inhibition of sperm calcineurin,[9],inhibits sperm calcineurin at nanomolar level
